In ChEMBL document CHEMBL6120994, “Unravelling the potential of natural chelating agents in the control of Staphylococcus aureus and Pseudomonas aeruginosa biofilms” (Eur J Med Chem, 2025):
Converted amounts (≈) assume the structure as drawn. The source made the active and inactive calls. The calls are words filed in the database; no cut-off is given here.

Assays:
Pseudomonas aeruginosa [1] = assay: Antibiofilm activity against Pseudomonas aeruginosa ATCC 10145 assessed as reduction in biofilm cells culturability by measuring reduction in number of CFU at 500 to 1000 ug/ml measured after 24 hrs by visual counting method; format: functional, organism-based; details: dose 500-1000 µg/ml
Pseudomonas aeruginosa [2] = assay: Antibiotic adjuvant activity against Pseudomonas aeruginosa ATCC 10145 assessed as ciprofloxacin MBC at 125 ug/ml measured after 24 hrs in presence of ciprofloxacin by checkerboard assay (reference value: 32 ug/ml); format: functional; details: dose 125 µg/ml
Pseudomonas aeruginosa [3] = assay: Antibiofilm activity against Pseudomonas aeruginosa PAK01 biofilm assessed as reduction of bacterial biomass by crystal violet staining based analysis; format: functional
Staphylococcus aureus [4] = assay: Inhibition of virulence production in Staphylococcus aureus CECT 976 biofilms assessed as diameter of lipases halo at 1/2XMTC measured after 48 hrs in presence of 1/8XMIC tobramycin (reference value: 12.5 to 12.8 mm); format: functional
HepG2 = assay: Protection against iron(III)-induced cytotoxicity in human HepG2 cells assessed as cell mass at 250 to 750 ug/ml measured after 24 hrs by SRB binding assay (reference value: 56.2 +/-5.4%); format: functional; details: dose 250-750 µg/ml, at 250 to 750 µg/mL
Escherichia coli = assay: Antibacterial activity against Escherichia coli BNCC133721 assessed as inhibition of bacterial growth measured after 24 hrs by broth microdilution method; format: functional
Pseudomonas aeruginosa [5] = assay: Antibacterial activity against Pseudomonas aeruginosa ATCC 10145 assessed as inhibition of bacterial growth by measuring inhibition zone diameter at 100 ug/ml incubated for 24 hrs in presence of ciprofloxacin by disc diffusion method (reference value: 24.25 +/-0.5 mm); format: functional; details: read-out: DIZ
Staphylococcus aureus [6] = assay: Antibiotic adjuvant activity against Staphylococcus aureus CECT 976 assessed as potentiation of tobramycin-induced antibacterial activity by measuring fractional inhibitory concentration index (MBC) at 62.5 ug/ml measured after 24 hrs by checkerboard assay; format: functional; details: dose 62.5 µg/ml
Pseudomonas aeruginosa [7] = assay: Antibiofilm activity against preestablished 24 hr-old Pseudomonas aeruginosa ATCC 10145 assessed as reduction in metabolic activity of biofilm cells at MTC by resazurin staining based fluorescence analysis; format: functional, organism-based
Pseudomonas aeruginosa [8] = assay: Antibiofilm activity against Pseudomonas aeruginosa ATCC 10145 assessed as reduction in biomass production at 500 to 1000 ug/ml measured after 24 hrs by crystal violet staining method; format: functional, organism-based; details: dose 500-1000 µg/ml
Pseudomonas aeruginosa [9] = assay: Antibiofilm activity against Pseudomonas aeruginosa ATCC 10145 assessed as reduction in metabolic activity of biofilm cells at 500 to 1000 ug/ml by resazurin staining based fluorescence analysis; format: functional, organism-based; details: dose 500-1000 µg/ml
Staphylococcus aureus [10] = assay: Antibiofilm activity against Staphylococcus aureus ATCC 6538 assessed as reduction in biomass at 700 ug/ml measured after 48 hrs by crystal violet staining based analysis; format: functional
Staphylococcus aureus [11] = assay: Antibiotic adjuvant activity against Staphylococcus aureus CECT 976 assessed as fold potentiation of tobramycin-induced antibiofilm activity by measuring reduction in biomass production at 500 ug/ml measured after 24 hrs in presence of 1/4XMIC tobramycin by crystal violet staining method relative to tobramycin treated control; format: functional; details: dose 500 µg/ml
Staphylococcus aureus [12] = assay: Antibacterial activity against Staphylococcus aureus ATCC 6538 assessed as inhibition of bacterial growth measured after 24 hrs by broth microdilution method; format: functional
Pseudomonas aeruginosa [13] = assay: Antibiofilm activity against Pseudomonas aeruginosa PAO1 biofilm assessed as reduction of bacterial biomass by crystal violet staining based analysis; format: functional
Staphylococcus aureus [14] = assay: Antibiofilm activity against preestablished 24 hr-old Staphylococcus aureus CECT 976 assessed as reduction in biofilm cells culturability by measuring log reduction of CFU of biofilm cells at 10XMTC measured after 24 hrs by visual counting method; format: functional
Staphylococcus aureus [15] = assay: Antibiotic adjuvant activity against Staphylococcus aureus CECT 976 assessed as potentiation of tobramycin-induced antibiofilm activity by measuring reduction of CFU of biofilm cells at 500 ug/ml measured after 24 hrs in presence of 1/2X to 1/8XMIC tobramycin by visual counting method; format: functional; details: dose 500 µg/ml
Pseudomonas aeruginosa [16] = assay: Antibiotic adjuvant activity against Pseudomonas aeruginosa ATCC 10145 assessed as fractional inhibitory concentration index (MBC) at 125 ug/ml measured after 24 hrs in presence of ciprofloxacin by checkerboard assay; format: functional; details: dose 125 µg/ml
Pseudomonas aeruginosa [17] = assay: Antibiofilm activity against preestablished 24 hr-old Pseudomonas aeruginosa ATCC 10145 assessed as reduction in metabolic activity of biofilm cells at 10XMTC by resazurin staining based fluorescence analysis; format: functional
Acinetobacter baumannii = assay: Antibacterial activity against Acinetobacter baumannii assessed as inhibition of bacterial growth incubated for 16 hrs by broth microdilution method; format: functional
Staphylococcus aureus [18] = assay: Antibiotic adjuvant activity against preestablished 24 hr-old Staphylococcus aureus CECT 976 assessed as potentiation of tobramycin-induced antibiofilm activity by measuring reduction of biomass at 10000 ug/ml measured after 24 hrs in presence of 1/4XMIC to MIC tobramycin by crystal violet staining method; format: functional, organism-based; details: dose 10000.0 µg/ml
Staphylococcus aureus [19] = assay: Inhibition of virulence production in pre-established 24 hr-old Staphylococcus aureus CECT 976 biofilms assessed as diameter of siderophores halo at 10XMTC measured after 48 hrs in presence of 1/4XMIC tobramycin (reference value: 11.5 +/-0.6 mm); format: functional
Pseudomonas aeruginosa [20] = assay: Antibacterial activity against Pseudomonas aeruginosa assessed as inhibition of bacterial growth incubated for 24 hrs by broth microdilution method; format: functional
Staphylococcus aureus [21] = assay: Antibiotic adjuvant activity against preestablished 24 hr-old Staphylococcus aureus CECT 976 assessed as potentiation of tobramycin-induced antibiofilm activity by measuring reduction of biomass at 10000 ug/ml measured after 24 hrs in presence of 1/4XMIC tobramycin by crystal violet staining method; format: functional
Pseudomonas aeruginosa [22] = assay: Antibiofilm activity against Pseudomonas aeruginosa ATCC 10145 assessed as reduction in metabolic activity of biofilm cells at 1000 ug/ml by resazurin staining based fluorescence analysis; format: functional
[23] = Cytotoxicity against human HepG2 cells assessed as cell mass at 375 to 500 ug/ml measured after 24 hrs by SRB binding assay; format: toxicity, cell-based; details: at 375 to 500 µg/mL, dose 375-500 µg/ml, read-out: Activity
Pseudomonas aeruginosa [24] = assay: Antibiotic adjuvant activity against Pseudomonas aeruginosa ATCC 10145 assessed as fractional inhibitory concentration index (MBC) at 15.6 ug/ml measured after 24 hrs in presence of ciprofloxacin by checkerboard assay; format: functional; details: dose 15.6 µg/ml
Pseudomonas aeruginosa [25] = assay: Antibiofilm activity against preestablished 24 hr-old Pseudomonas aeruginosa ATCC 10145 assessed as reduction in biofilm cells culturability by measuring log reduction of CFU of biofilm cells at 10XMTC measured after 24 hrs by visual counting method; format: functional
Staphylococcus aureus [26] = assay: Antibacterial activity against Staphylococcus aureus assessed as inhibition of bacterial growth incubated for 24 hrs by broth microdilution method; format: functional
Staphylococcus aureus [27] = assay: Antibacterial activity against Staphylococcus aureus assessed as loss of intracellular content at 5000 ug/ml incubated for 4 hrs by transmission electron microscopy; format: functional; details: dose 5000 µg/ml
Pseudomonas aeruginosa [28] = assay: Antibiotic adjuvant activity against Pseudomonas aeruginosa ATCC 10145 assessed as ciprofloxacin MBC at 15.6 ug/ml measured after 24 hrs in presence of ciprofloxacin by checkerboard assay (reference value: 32 ug/ml); format: functional; details: dose 15.6 µg/ml
Pseudomonas aeruginosa [29] = assay: Antibiofilm activity against Pseudomonas aeruginosa ATCC 10145 assessed as reduction in biomass production at 500 ug/ml measured after 24 hrs by crystal violet staining method; format: functional

With `O=c1cc(CO)occ1O` [KOJIC ACID] the Activity (Pseudomonas aeruginosa [1]) was “inactive”, the MBC (Pseudomonas aeruginosa [2]) was 32 µg/mL and the “inhibition (INH)” value (Pseudomonas aeruginosa [3]) was 5%. It also gave an Activity (Staphylococcus aureus [4]) of 2.5 mm, an Activity (HepG2) of over 61.8% and an Activity (Escherichia coli) of over 1000 µg/mL. For the same molecule, the zone of inhibition at 100 µg/mL (Pseudomonas aeruginosa [5]) was 30.2 mm, the “fractional inhibitory concentration index (FICI)” value (Staphylococcus aureus [6]) was 0.3 and the Activity (Pseudomonas aeruginosa [7]) was “inactive”. The Activity (Pseudomonas aeruginosa [8]) was “inactive”, the Activity (Pseudomonas aeruginosa [9]) was “inactive” and the inhibition at 700 µg/mL (Staphylococcus aureus [10]) was 40%. The “fold change (FC)” value (Staphylococcus aureus [11]) was 2.6, the MIC (Staphylococcus aureus [12]) was 1400 µg/mL (≈ 9.85 mM) and the “inhibition (INH)” value (Pseudomonas aeruginosa [13]) was 27%. For the same molecule, the Activity (Staphylococcus aureus [14]) was 1.9 log10CFU/cm^-2, the Activity (Staphylococcus aureus [15]) was 2 log10CFU/cm^-2 and the “fractional inhibitory concentration index (FICI)” value (Pseudomonas aeruginosa [16]) was 1. For the same molecule, the “inhibition (INH)” value (Pseudomonas aeruginosa [17]) was 70%, the MIC (Acinetobacter baumannii) was 3410 µg/mL (≈ 24 mM) and the Activity (Staphylococcus aureus [18]) was “inactive”. The Activity (Staphylococcus aureus [19]) was 10.3 mm.

In the case of `Cc1occc(=O)c1O` [MALTOL], the MIC (Pseudomonas aeruginosa [20]) is reported as 4000 µg/mL (≈ 31.7 mM), the inhibition at 10000 µg/mL (Staphylococcus aureus [21]) is reported as 31% and the inhibition at 1000 µg/mL (Pseudomonas aeruginosa [22]) is reported as 30%. The viability at 24 h [23] was 68%, the Activity (Staphylococcus aureus [4]) was 2 mm and the “fractional inhibitory concentration index (FICI)” value (Pseudomonas aeruginosa [24]) was 1. For the same molecule, the zone of inhibition at 100 µg/mL (Pseudomonas aeruginosa [5]) was 27.2 mm, the “fractional inhibitory concentration index (FICI)” value (Staphylococcus aureus [6]) was 0.3 and the Activity (Pseudomonas aeruginosa [7]) was “inactive”. It also gave an Activity (Pseudomonas aeruginosa [25]) of 3.1 log10CFU/cm^-2, an MIC (Staphylococcus aureus [26]) of 4000 µg/mL (≈ 31.7 mM) and an Activity (Staphylococcus aureus [27]) of 7.7%. For the same molecule, the MBC (Pseudomonas aeruginosa [28]) was 32 µg/mL, the inhibition at 500 µg/mL (Pseudomonas aeruginosa [29]) was under 15% and the “inhibition (INH)” value (Pseudomonas aeruginosa [17]) was 70%. It also gave an Activity (Staphylococcus aureus [19]) of 10.3 mm.
